“Also recorded” adds a separate entry of the source. One block for each molecule: values may come before it.
Legend:
[1] = Influence of compounds on topotecan cytotoxicity, HEK293A; type: cell-based, human; details: human, HEK293A cells; topotecan alone; read-out: Tpc CC50 HEK293A
Protocol: (§1) Then, we tested the ability of the adamantane–monoterpenoid derivatives to sensitize cells to the action of topotecan. For this, we chose a low-toxic concentration 20 μM and varied the concentrations of topotecan (Supplementary Figure S3).
(§2) In the reverse experiment, when the concentrations of the compounds were varied with 30 nM topotecan (in the experiments with HEK293A cells) or 3 μM topotecan (in the experiments with HeLa cells), respectively, a noticeable synergistic effect on HeLa cells was already observed at low concentrations of TDP1 inhibitors (1 and 5 μM) (Supplementary Figure S4). Given that the IC50 values for these compounds are >5 μM, this also indicates the presence of other targets in addition to TDP1.
(§3) The cytotoxicity of the compounds to HeLa (human cervical cancer) and HEK293A (human embryonic kidney) cell lines was examined using the EZ4U Cell Proliferation and Cytotoxicity Assay (Biomedica, Vienna, Austria), according to the manufacturer’s protocols. The cells were grown in DMEM (Dulbecco’s Modified Eagle’s Medium) with 50 IU/mL penicillin, 50 μg/mL streptomycin (MP Biomedicals, Santa Ana, CA, USA), and 10% of fetal bovine serum (Biolot, St. Petersburg, Russia) in a 5% CO2 atmosphere. After formation of a 30–50%-monolayer, the tested compounds were added to the medium. The volume of the added reagents was 1/100 of the total volume of the culture medium, and the amount of DMSO (Sigma, St. Louis, MO, USA) was 1% of the final volume. The cell culture was monitored for 3 days. To assess the influence of the inhibitors on the cytotoxic effect of topotecan (Selleck Chemicals, Houston, TX, USA), 50% cytotoxic concentrations of topotecan and of each inhibitor were determined to attain a defined single-agent effect. Then, a minimum of two independent tests were performed with each inhibitor in combination with topotecan. When using a combination of drugs, TDP1 inhibitors were first added, then topotecan was added immediately (within 10–15 min).

HeLa cells [2] = assay: Influence of compounds on topotecan cytotoxicity, HeLa; type: cell-based; details: Homo sapiens, topotecan alone, read-out: Tpc CC50 HeLa
Protocol: as §1, §2
The cytotoxicity of the compounds to HeLa (human cervical cancer) and HEK293A (human embryonic kidney) cell lines was examined using the EZ4U Cell Proliferation and Cytotoxicity Assay (Biomedica, Vienna, Austria), according to the manufacturer’s protocols. […] The cell culture was monitored for 3 days. To assess the influence of the inhibitors on the cytotoxic effect of topotecan (Selleck Chemicals, Houston, TX, USA), 50% cytotoxic concentrations of topotecan and of each inhibitor were determined to attain a defined single-agent effect. […]

HeLa cells [3] = assay: Combination index (CI) of topotecan and TDP1 inhibitors, CompuSyn; type: cell-based, human
Protocol: For HeLa cells, we calculated the combination index (CI), the parameter that is used to determine the degree of drug interaction. The combination index (CI) values for the different concentrations (Supplementary Figure S3) of topotecan and TDP1 inhibitors were less than one, and for some compounds less than 0.1 (Supplementary Table S1). This indicates a strong synergistic effect of topotecan and […]. The CI values were calculated with the CompuSyn version 1.0 software.
as §3

[4] = Intrinsic cytotoxicity, EZ4U assay, HeLa; type: cell-based, human; details: human, HeLa cells, compound alone, 3 days
Protocol: (§4) Next, we tested the compounds’ intrinsic toxicity against cervical cancer HeLa cells and non-cancerous HEK293A immortalized human embryonic kidney cells using the EZ4U assay format.
as §3

HeLa cells [5] = assay: Intrinsic cytotoxicity, EZ4U assay, HeLa; type: cell-based, human; details: HeLa and HEK293A cells
Protocol: as §4, §3

HEK293A cells = assay: Influence of compounds on topotecan cytotoxicity, HEK293A; type: cell-based, human
Protocol: as §1, §2, §3

TDP1 = TDP1 (Homo sapiens, UniProt Q9NUW8); assay: TDP1 activity, real-time fluorescence biosensor assay; type: biochemical
Sequence of TDP1 (Q9NUW8 whole entry): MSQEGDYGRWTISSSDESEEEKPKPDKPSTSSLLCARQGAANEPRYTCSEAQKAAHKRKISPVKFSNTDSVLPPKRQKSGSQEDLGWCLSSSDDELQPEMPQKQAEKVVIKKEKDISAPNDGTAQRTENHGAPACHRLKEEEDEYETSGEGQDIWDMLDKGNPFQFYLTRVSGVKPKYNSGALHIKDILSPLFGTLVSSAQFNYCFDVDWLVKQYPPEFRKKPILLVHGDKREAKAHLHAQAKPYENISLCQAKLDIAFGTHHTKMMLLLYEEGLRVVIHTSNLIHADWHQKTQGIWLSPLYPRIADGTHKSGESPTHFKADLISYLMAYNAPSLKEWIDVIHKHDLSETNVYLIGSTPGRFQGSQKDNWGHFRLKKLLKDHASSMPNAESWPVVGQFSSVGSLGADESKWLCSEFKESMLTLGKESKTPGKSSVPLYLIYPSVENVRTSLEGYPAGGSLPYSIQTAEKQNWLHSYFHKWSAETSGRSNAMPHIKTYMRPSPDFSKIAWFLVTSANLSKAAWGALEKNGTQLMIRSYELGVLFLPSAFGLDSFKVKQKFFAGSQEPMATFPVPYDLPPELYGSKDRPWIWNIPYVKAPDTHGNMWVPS

[6] = Intrinsic cytotoxicity, EZ4U assay, HEK293A; type: cell-based; details: human, HEK293A cells, compound alone
Protocol: as §4, §3

melting point: 210.9 °C
IC50 (TDP1): ~5 µM
Structure (SMILES): CC1=CC[C@@H](CC(=O)Nc2nnc(C34CC5CC(CC(C5)C3)C4)s2)C1(C)C [15b, N-(5-(Adamantan-1-yl)-1,3,4-thiadiazol-2-yl)-2-((S)-2,2,3-trimethylcyclopent-3-en-1-yl)acetamide]
Effect (HeLa cells [3]; Tpc 0.3 µM + 50 µM compound): 0.48
CI (HeLa cells [3]; Tpc 0.5 µM + 50 µM compound): 0.05563
Effect (HeLa cells [3]; Tpc 0.5 µM + 50 µM compound): 0.69
CI (HeLa cells [3]; Tpc 1.0 µM + 50 µM compound): 0.04653
Effect (HeLa cells [3]; Tpc 1.0 µM + 50 µM compound): 0.84
CI (HeLa cells [3]; Tpc 2.0 µM + 50 µM compound): 0.05382
Effect (HeLa cells [3]; Tpc 2.0 µM + 50 µM compound): 0.9
CI (HeLa cells [3]; Tpc 4.0 µM + 50 µM compound): 0.09564
Effect (HeLa cells [3]; Tpc 4.0 µM + 50 µM compound): 0.91
CC50 at 3 days [4]: > 100 µM
effect on the action of topotecan on HEK293A cells (in words) (HEK293A cells): protected HEK293A cells from the action of topotecan
CC50 at 3 days [6]: > 100 µM

melting point: 209.2 to 210.1 °C
IC50 (TDP1): 6.1 ± 2.6 µM
Structure (SMILES): CC1=CC[C@H](CC(=O)Nc2nnc(C34CC5CC(CC(C5)C3)C4)s2)C1(C)C [15a, N-(5-(Adamantan-1-yl)-1,3,4-thiadiazol-2-yl)-2-((R)-2,2,3-trimethylcyclopent-3-en-1-yl)acetamide]
Effect (HeLa cells [3]; Tpc 0.3 µM + 50 µM compound): 0.27
CI (HeLa cells [3]; Tpc 0.5 µM + 50 µM compound): 0.07887
Effect (HeLa cells [3]; Tpc 0.5 µM + 50 µM compound): 0.53
CI (HeLa cells [3]; Tpc 1.0 µM + 50 µM compound): 0.06365
Effect (HeLa cells [3]; Tpc 1.0 µM + 50 µM compound): 0.73
CI (HeLa cells [3]; Tpc 2.0 µM + 50 µM compound): 0.06893
Effect (HeLa cells [3]; Tpc 2.0 µM + 50 µM compound): 0.83
CI (HeLa cells [3]; Tpc 4.0 µM + 50 µM compound): 0.07307
Effect (HeLa cells [3]; Tpc 4.0 µM + 50 µM compound): 0.9
CC50 at 3 days [4]: > 100 µM
CC50 at 3 days [6]: > 100 µM

More lines, now with the values behind:

Structure (SMILES): CC[C@@]1(O)C(=O)OCc2c1cc1n(c2=O)Cc2cc3c(CN(C)C)c(O)ccc3nc2-1 [Tpc, topotecan]
CC50 at 3 days [1]: 0.066 ± 0.028 µM
CC50 (HeLa cells [2]): 4 ± 1.3 µM

Structure (SMILES): CC1=CC[C@H](CCSc2nc(C34CC5CC(CC(C5)C3)C4)n[nH]2)C1(C)C [14a, 3-(Adamantan-1-yl)-5-((2-((R)-2,2,3-trimethylcyclopent-3-en-1-yl)ethyl)thio)-1H-1,2,4-triazole]
melting point: 113.5 °C
Effect (HeLa cells [3]; Tpc 0.3 µM + 20 µM compound): 0.17
Effect (HeLa cells [3]; Tpc 0.6 µM + 20 µM compound): 0.47
CI (HeLa cells [3]; Tpc 2.5 µM + 20 µM compound): 0.4461
Effect (HeLa cells [3]; Tpc 2.5 µM + 20 µM compound): 0.92
CI (HeLa cells [3]; Tpc 5.0 µM + 20 µM compound): 0.7177
Effect (HeLa cells [3]; Tpc 5.0 µM + 20 µM compound): 0.96
CI (HeLa cells [3]; Tpc […] + 20 µM compound): 0.2872
Effect (HeLa cells [3]; Tpc […] + 20 µM compound): 0.81
CC50 at 3 days [4]: 53 ± 8 µM
intrinsic toxicity (in words) (HeLa cells [5]): moderate toxicity
effect on the action of topotecan on HEK293A cells (in words) (HEK293A cells): protected HEK293A cells from the action of topotecan
IC50 (TDP1): 5.5 ± 1.5 µM
CC50 at 3 days [6]: 47 ± 3 µM

Structure (SMILES): CC1(C)[C@@H]2CC[C@@]1(CS(=O)(=O)Nc1nnc(C34CC5CC(CC(C5)C3)C4)s1)C(=O)C2 [compound 17, N-(5-(Adamantan-1-yl)-1,3,4-thiadiazol-2-yl)-1-((1S,4R)-7,7-dimethyl-2-oxobicyclo[2.2.1]heptan-1-yl)methanesulfonamide]
melting point: 200.3 to 200.5 °C
Effect (HeLa cells [3]; Tpc 0.3 µM + 20 µM compound): 1.0E-4
Effect (HeLa cells [3]; Tpc 0.6 µM + 20 µM compound): 0.02
CI (HeLa cells [3]; Tpc 2.5 µM + 20 µM compound): 0.7924
Effect (HeLa cells [3]; Tpc 2.5 µM + 20 µM compound): 0.6
CI (HeLa cells [3]; Tpc 5.0 µM + 20 µM compound): 1.176
Effect (HeLa cells [3]; Tpc 5.0 µM + 20 µM compound): 0.81
Effect (HeLa cells [3]; Tpc […] + 20 µM compound): 0.25
CC50 at 3 days [4]: 100 ± 20 µM
IC50 (TDP1): > 30 µM
anti-TDP1 activity (in words) (TDP1): not exhibiting anti-TDP1 activity; also recorded: ineffective
CC50 at 3 days [6]: > 100 µM

Structure (SMILES): CC1=CC[C@@H](CCSc2nc(C34CC5CC(CC(C5)C3)C4)n[nH]2)C1(C)C [14b, 3-(Adamantan-1-yl)-5-((2-((S)-2,2,3-trimethylcyclopent-3-en-1-yl)ethyl)thio)-1H-1,2,4-triazole]
melting point: 111.8 to 112.4 °C
CI (HeLa cells [3]; Tpc 0.3 µM + 20 µM compound): 0.00419
Effect (HeLa cells [3]; Tpc 0.3 µM + 20 µM compound): 0.94
CI (HeLa cells [3]; Tpc 0.5 µM + 20 µM compound): 0.00165
Effect (HeLa cells [3]; Tpc 0.5 µM + 20 µM compound): 0.97
CI (HeLa cells [3]; Tpc 1.0 µM + 20 µM compound): 0.00117
Effect (HeLa cells [3]; Tpc 1.0 µM + 20 µM compound): 0.98
CI (HeLa cells [3]; Tpc 2.0 µM + 20 µM compound): 0.00166
Effect (HeLa cells [3]; Tpc 2.0 µM + 20 µM compound): 0.98
CI (HeLa cells [3]; Tpc 4.0 µM + 20 µM compound): 0.00113
Effect (HeLa cells [3]; Tpc 4.0 µM + 20 µM compound): 0.99
CC50 at 3 days [4]: 54 ± 7 µM
intrinsic toxicity (in words) (HeLa cells [5]): moderate toxicity
IC50 (TDP1): 6.1 ± 0.1 µM
CC50 at 3 days [6]: 50 ± 3 µM

Structure (SMILES): CC1(C)[C@@H]2CC[C@@]1(C(=O)Nc1nnc(C34CC5CC(CC(C5)C3)C4)s1)C(=O)C2 [compound 16, (1S,4R)-N-(5-(Adamantan-1-yl)-1,3,4-thiadiazol-2-yl)-7,7-dimethyl-2-oxobicyclo[2.2.1]heptane-1-carboxamide]
melting point: 269.6 °C
Effect (HeLa cells [3]; Tpc 0.3 µM + 20 µM compound): 0.035
Effect (HeLa cells [3]; Tpc 0.6 µM + 20 µM compound): 0.1
CI (HeLa cells [3]; Tpc 2.5 µM + 20 µM compound): 0.5114
Effect (HeLa cells [3]; Tpc 2.5 µM + 20 µM compound): 0.75
CI (HeLa cells [3]; Tpc 5.0 µM + 20 µM compound): 0.8721
Effect (HeLa cells [3]; Tpc 5.0 µM + 20 µM compound): 0.85
Effect (HeLa cells [3]; Tpc […] + 20 µM compound): 0.36
CC50 at 3 days [4]: 20 ± 8 µM
intrinsic toxicity (in words) (HeLa cells [5]): moderate toxicity
IC50 (TDP1): > 30 µM
anti-TDP1 activity (in words) (TDP1): not exhibiting anti-TDP1 activity; also recorded: ineffective
CC50 at 3 days [6]: 23 ± 10 µM
